Among the data in patent publication US20230192686A1, “1H-PYRROLO[2,3-B]PYRIDINES AND PREPARATION AND USES THEREOF” (BioSplice Therapeutics, Inc., priority 2021, published 2023) are EC50 values, retold here.

The EC50 is the concentration that produces a half-maximal response.

The target of assay [1] is recombinant DYRK1A kinase (Homo sapiens, UniProt Q13627). The experiment in a line: DYRK1A kinase assay (Ser/Thr 18 peptide Z-lyte FRET). The class given is biochemical. The conditions noted are these: DYRK1A kinase activity; 15 μM ATP, 4 μM Ser/Thr peptide 18, one hour at room temperature. In a few lines: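 Recombinant DYRK1A at 0.25 μg/mL was incubated 1 h at room temperature with 15 μM ATP, 4 μM Ser/Thr 18 peptide and compound, in duplicate, 11-point series from 10 μM. Phosphorylation was read by Z-lyte FRET after 1 h protease development, as the coumarin/fluorescein emission ratio converted to % phosphorylation. IC50 by non-linear regression.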

The test system of assay [2] is Tau phosphorylation at Thr212 (pThr212). Description: Tau phosphorylation assay, phosphoTau (Thr212) AlphaLISA in HEK293T cells transfected with DYRK1A and MAPT. It counts as cell-based. The conditions noted are these: HEK-293T; HEK293T cells transfected with human DYRK1A and MAPT; compound treatment 18-24 hours; read-out: pTau (Thr212) EC50. The method, then: Representative compounds were screened using the assay procedure for tau phosphorylation activity described below.
HEK293T cells (ATCC, CRL3216) cultured in DMEM (Thermo Fisher Scientific, 10566024) supplemented with 10% FBS (Corning, 35-011-CV) and Penicillin/Streptomycin (Thermo Fisher Scientific, 15140163) were seeded in a 75 cm^2 flask at 8.1×10^6 cells/flask. The HEK293T cells were then transiently transfected with 5 μg DYRK1A (NM_001396) human untagged clone (OriGene, SC314641) and 2.5 μg MAPT (441 a.a. Tau gene) (NM_005910) human untagged clone (OriGene, TP313312) using Lipofectamine 3000 (Thermo Fisher Scientific, L30000015) and incubated for 20-30 hours in a humidified incubator at 37° C. and 5% CO2. Post-incubation, HEK293T cells transfected with the DYRK1A and MAPT expression vectors were harvested and seeded in BioCoat poly-D lysine coated 96-well plates (Corning, 354461) at 3×10^4 cells/well.
The above synthesized compounds were screened using the cell assay procedure to assess decreased Tau phosphorylation at Thr212 (pThr212) described below.
Each compound was dissolved in DMSO (Sigma-Aldrich, D8418-100 mL) as a 10 mM stock. 10 mM stocks were serially diluted 1:3, 10-point dose-response curve and added to the cells with a final concentration ranging from 20 μM to 1.1 nM. Cell were treated with compounds in duplicate and incubated for 18-24 hours in a humidified incubator at 37° C. and 5% CO2.
Following the overnight compound treatment, cells were lysed with 1× Alpha Surefire Ultra Lysis Buffer (Perkin Elmer, ALSU-LB-100ML) complemented with 1× Halt Phosphatase Inhibitor Cocktail (Thermo Fisher Scientific, 78427) and 1× Halt Protease Inhibitor Cocktail (Thermo Fisher Scientific, 78438). Lysates were spun down at 12,000 g for 10 min to remove any cellular debris and 5 μL of lysates were dispensed into a 384-well Opti-Plate (Perkin Elmer, 6007290) for the measurement of Tau phosphorylation in the phosphoTau (Thr212) AlphaLISA assay. Donor antibody, biotinylated HT7Tau (Thermo Fisher Scientific, MN1000B), and acceptor antibody, pThr212Tau (Thermo Fisher Scientific, 44740G) were both added to the cell lysates at a final concentration of 3 nM and incubated for 1 hour at room temperature. Following incubation of the lysates with the donor and acceptor antibodies, anti-rabbit IgG(Fc specific) AlphaLISA acceptor beads (Perkin Elmer, AL104C) were added at a 10 ug/mL final concentration and incubated for 1 hour at room temperature protected from light. Lastly, AlphaScreen streptavidin donor beads (PerkinElmer, 6760002) were added at 40 ug/mL final concentration and incubated for 1 hour at room temperature protected from light. Plates were read at Ex=[…], and Em=615 nm on the EnVision Multilabel Plate Reader (Perkin Elmer) phospho-Tau (Thr212) AlphaLISA signal was used to plot, draw the curve fitting, and determine each compound's EC50 in Prism (GraphPad).
On the technique in general: In Alpha technology, singlet oxygen from a donor bead excites a nearby acceptor bead.

`Cc1nc2ncc(-c3c[nH]c4ncccc34)cc2n1C(C)C` [Compound 25, 1-Isopropyl-2-methyl-6-(1H-pyrrolo[2,3-b]pyridin-3-yl)-1H-imidazo[4,5-b]pyridine]: the EC50 in assay [1] is 1 nM; in assay [2], 16 nM. The corresponding values for `Cn1cc(-c2cnn3ccc(-c4c[nH]c5ncccc45)cc23)cn1` [Compound 37, 3-(3-(1-Methyl-1H-pyrazol-4-yl)pyrazolo[1,5-a]pyridin-5-yl)-1H-pyrrolo[2,3-b]pyridine] are 1 nM and 6 nM. Consider `CN1CCC(Nc2cnc3ccc(-c4c[nH]c5ncccc45)cc3n2)CC1` [Compound 92, N-(1-Methylpiperidin-4-yl)-7-(1H-pyrrolo[2,3-b]pyridin-3-yl) quinoxalin-2-amine], for which the EC50 stood at 5 nM in assay [1] and 31 nM in assay [2]. For the compound `O=C(c1cnn2ccc(-c3c[nH]c4ncccc34)cc12)N1CCC(N2CCOCC2)CC1` [Compound 107, (5-(1H-Pyrrolo[2,3-b]pyridin-3-yl)pyrazolo[1,5-a]pyridin-3-yl)(4-morpholinopiperidin-1-yl)methanone], the EC50 was determined as 8 nM in assay [1] and 396 nM in assay [2]. As to `CN1CCN(C(=O)c2cnn3ccc(-c4c[nH]c5ncc(Cl)cc45)cc23)CC1` [Compound 215, (5-(5-Chloro-1H-pyrrolo[2,3-b]pyridin-3-yl)pyrazolo[1,5-a]pyridin-3-yl)(4-methylpiperazin-1-yl)methanone], the EC50 was 12 nM in assay [1] and 258 nM in assay [2]. `CN1CCN(c2ccc(NC(=O)c3cnc4[nH]cc(-c5ccc6nccnc6c5)c4c3)cn2)CC1` [Compound 817, N-(6-(4-Methylpiperazin-1-yl)pyridin-3-yl)-3-(quinoxalin-6-yl)-1H-pyrrolo[2,3-b]pyridine-5-carboxamide]: the EC50 came out at 8 nM in assay [1] and 210 nM in assay [2]. As to `c1cncc(-c2cnc3[nH]cc(-c4ccc5ncccc5c4)c3c2)c1` [Compound 1194, 6-(5-(Pyridin-3-yl)-1H-pyrrolo[2,3-b]pyridin-3-yl)quinoline], the EC50 in assay [2] was found to be 2 nM. Turning to `Cc1ccc2c(-c3ccc4ncccc4c3)c[nH]c2n1` [Compound 1488, 6-(6-Methyl-1H-pyrrolo[2,3-b]pyridin-3-yl)quinoline], the EC50 in assay [1] stood at 2 nM; in assay [2], 39 nM. On the same counts, the results for `c1cn2cc(-c3c[nH]c4nc(C5CC5)ccc34)ccc2n1` [Compound 1498, 6-(6-Cyclopropyl-1H-pyrrolo[2,3-b]pyridin-3-yl)imidazo[1,2-a] pyridine] are 47 nM and 441 nM. The corresponding values for `Cc1nc2c(F)cc(-c3c[nH]c4nc(C5CC5)ccc34)cc2n1C1CCN(C)CC1` [Compound 1502, 6-(6-cyclopropyl-1H-pyrrolo[2,3-b]pyridin-3-yl)-4-fluoro-2-methyl-1-(1-methylpiperidin-4-yl)-1H-benzo[d]imidazole] are 5 nM and 936 nM. `c1cn2nc(-c3c[nH]c4nc(C5CC5)ccc34)ccc2n1` [Compound 1508, 6-(6-Cyclopropyl-1H-pyrrolo[2,3-b]pyridin-3-yl)imidazo[1,2-b] pyridazine]: the EC50 is 29 nM in assay [1] and 321 nM in assay [2]. The corresponding values for `C[C@@H](NC(=O)c1cnn2ccc(-c3c[nH]c4nc(C5CC5)ccc34)cc12)C(F)(F)F` [Compound 1513, (R)-5-(6-Cyclopropyl-1H-pyrrolo[2,3-b]pyridin-3-yl)-N-(1,1,1-trifluoropropan-2-yl)pyrazolo[1,5-a]pyridine-3-carboxamide] are 91 nM and 374 nM. On to `CN1C2CCC1CN(C(=O)c1cnc3[nH]cc(-c4cc5ccncc5s4)c3c1)C2` [Compound 2041, (8-Methyl-3,8-diazabicyclo[3.2.1]octan-3-yl)(3-(thieno[2,3-c]pyridin-2-yl)-1H-pyrrolo[2,3-b]pyridin-5-yl)methanone], for which the EC50 in assay [1] was determined as 115 nM. In the case of `c1cn2cc(-c3c[nH]c4nc(C5CCC5)ccc34)ncc2n1` [Compound 2042, 6-(6-Cyclobutyl-1H-pyrrolo[2,3-b]pyridin-3-yl)imidazo[1,2-a]pyrazine], the EC50 in assay [1] was found to be 345 nM.

`Cc1nc2c(F)cc(-c3c[nH]c4ncc(C(=O)O)cc34)cc2n1C(C)C` [Compound 2043, 3-(4-Fluoro-1-isopropyl-2-methyl-1H-benzo[d]imidazol-6-yl)-1H-pyrrolo[2,3-b]pyridine-5-carboxylic acid]: the EC50 in assay [1] came to 36 nM. Still for that read-out and setting: as for `Cc1nc2c(F)cc(-c3c[nH]c4ncc(C(=O)N5CC6CCC(C5)N6C)cc34)cc2n1C(C)C` [Compound 2044, (3-(4-Fluoro-1-isopropyl-2-methyl-1H-benzo[d]imidazol-6-yl)-1H-pyrrolo[2,3-b]pyridin-5-yl)(8-methyl-3,8-diazabicyclo[3.2.1]octan-3-yl)methanone], the figure is 3 nM; as for `Cc1nc2c(F)cc(-c3c[nH]c4nc(C(C)C)ccc34)cc2n1C(C)C` [Compound 2045, 4-Fluoro-1-isopropyl-6-(6-isopropyl-1H-pyrrolo[2,3-b]pyridin-3-yl)-2-methyl-1H-benzo[d]imidazole], 36 nM. Same read-out and setting: the value for `COc1cnc2[nH]cc(-c3ccn4ncc(C(=O)N5CCN(C)CC5)c4c3)c2c1` [Compound 2047, (5-(5-Methoxy-1H-pyrrolo[2,3-b]pyridin-3-yl)pyrazolo[1,5-a]pyridin-3-yl)(4-methylpiperazin-1-yl)methanone] was 32 nM; that for `CN1CCC(NC(=O)c2ccc3c(-c4ccc5ncnn5c4)c[nH]c3n2)CC1` [Compound 2048, 3-([1,2,4]Triazolo[1,5-a]pyridin-6-yl)-N-(1-methylpiperidin-4-yl)-1H-pyrrolo[2,3-b]pyridine-6-carboxamide] was 2540 nM. Same read-out and setting: as for `CN1C2CCC1CN(C(=O)c1cnc3[nH]cc(-c4ccn5nccc5c4)c3c1)C2` [Compound 2049, (8-Methyl-3,8-diazabicyclo[3.2.1]octan-3-yl)(3-(pyrazolo[1,5-a]pyridin-5-yl)-1H-pyrrolo[2,3-b]pyridin-5-yl)methanone], the figure is 45 nM; as for `CN1CCN(C(=O)c2cnn3ccc(-c4c[nH]c5ncc(C(F)(F)F)cc45)cc23)CC1` [Compound 2050, (4-Methylpiperazin-1-yl)(5-(5-(trifluoromethyl)-1H-pyrrolo[2,3-b]pyridin-3-yl)pyrazolo[1,5-a]pyridin-3-yl)methanone], 159 nM; as for `CN1CCN(c2ccc(CNc3ccnc4[nH]cc(-c5ccc6ncccc6c5)c34)cn2)CC1` [Compound 2051, N-((6-(4-Methylpiperazin-1-yl)pyridin-3-yl)methyl)-3-(quinolin-6-yl)-1H-pyrrolo[2,3-b]pyridin-4-amine], 37 nM. Consider `c1cnc2ccc(-c3c[nH]c4nccc(NCc5ccc(-n6ccnc6)nc5)c34)cc2c1` [Compound 2052, N-((6-(1H-Imidazol-1-yl)pyridin-3-yl)methyl)-3-(quinolin-6-yl)-1H-pyrrolo[2,3-b]pyridin-4-amine], for which the EC50 in assay [1] was 34 nM.

Take `c1cnc2ccc(-c3c[nH]c4nc(OCC5CC5)ccc34)cc2c1` [Compound 2053, 6-(6-(Cyclopropylmethoxy)-1H-pyrrolo[2,3-b]pyridin-3-yl)quinoline]: the EC50 in assay [1] was determined as 76 nM. On the same count and under the same terms, the value for `c1cnc2ccc(-c3c[nH]c4nc(-c5cncs5)ccc34)cc2c1` [Compound 2055, 5-(3-(quinolin-6-yl)-1H-pyrrolo[2,3-b]pyridin-6-yl)thiazole] was 37 nM; that for `CN(CC(F)F)C(=O)c1cnc2ccc(-c3c[nH]c4nc(C5CC5)ccc34)cn12` [Compound 2056, 6-(6-cyclopropyl-1H-pyrrolo[2,3-b]pyridin-3-yl)-N-(2,2-difluoroethyl)-N-methylimidazo[1,2-a]pyridine-3-carboxamide] was 5 nM.
